# Measured values reported in US20240316051A1, “A PHARMACEUTICAL COMBINATION AND USE THEREOF” (Ascentage Pharma (Suzhou) Co., Ltd., priority 2021, published 2024).
# Molecular target: T1, EED (1-441)-His protein (Homo sapiens, UniProt O75530)
# T1 construct: 20 nM EED (1-441)-His protein
# Test: EED-H3K27Me3 peptide competition binding assay by AlphaScreen
# Details: Table 4A, read-out: Alpha screen
# Description: EED-H3K27Me3 Peptide Competition Binding Assay by AlphaScreen (α-Screen):
# The compounds at each concentration (2.5 μl of each) were transferred into a 384-well Perkin Elmer OptiPlate-384 white plates. 5 μl of solutions containing 20 nM EED (1-441)-His protein in the buffer (25 mM HEPES, pH 8, 0.02% Tween-20, 0.5% BSA) were added to the wells and then incubated with compound for 15 min. 2.5 μl of solutions containing 20 nM biotin-H3K27Me3 (19-33) peptide in the buffer (25 mM HEPES, pH 8, 0.02% Tween-20, 0.5% BSA) were added to the wells and then incubated with compound for 30 min. AlphaScreen detection beads mix was prepared immediately before use by mixing nickel chelate acceptor beads and streptavidin donor beads in a 1:1 ratio (Perkin Elmer, Product No. 6760619C/M/R) into the buffer described above. Then 10 μl of the detection beads mix was added to the plate and incubated in the dark at RT for 1 h. The final concentration of donor and acceptor beads was 10 μg/ml for each. Plates were read on CLARIOStar plate reader (BMG Labtech) using the AlphaScreen setting adapted for optimal signal detection with a 615 nm filter, after sample excitation at 680 nm. The emission signal at 615 nm was used to quantify compound inhibition. AlphaScreen signals were normalized based on the reading coming from the positive (maximum signal control) and negative controls (minimum signal control) to give percentage of activities left. The data were then fit to a dose response equation to get the IC50 values.
# T1 sequence (O75530 whole entry): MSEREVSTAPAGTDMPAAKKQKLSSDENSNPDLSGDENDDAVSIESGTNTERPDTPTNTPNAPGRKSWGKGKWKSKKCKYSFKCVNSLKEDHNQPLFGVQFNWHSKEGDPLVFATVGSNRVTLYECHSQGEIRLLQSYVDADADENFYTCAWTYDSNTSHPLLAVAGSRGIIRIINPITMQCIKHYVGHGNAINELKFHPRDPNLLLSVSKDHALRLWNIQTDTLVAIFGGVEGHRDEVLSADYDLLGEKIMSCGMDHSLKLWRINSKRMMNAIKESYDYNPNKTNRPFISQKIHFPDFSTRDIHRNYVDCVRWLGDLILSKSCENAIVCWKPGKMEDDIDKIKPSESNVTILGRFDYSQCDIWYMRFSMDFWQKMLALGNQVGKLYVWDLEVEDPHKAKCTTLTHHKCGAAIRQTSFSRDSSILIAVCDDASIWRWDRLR
row,IC50 [nM],SMILES
1,0.91,"CC1(O)CC(CN2Cc3nc(C(F)(F)F)ccc3-c3cnc(NCc4c(F)ccc5c4CCO5)n4cnc(c34)C2=O)C1 (stereo not shown) [Compound 47, 12-(((5-fluoro-2,3-dihydrobenzofuran-4-yl)methyl)amino)-4-((3-hydroxy-3-methylcyclobutyl)methyl)-7-(trifluoromethyl)-4,5-dihydro-3H-2,4,6,11,12a-pentaazabenzo[4,5]cycloocta[1,2,3-cd]inden-3-one]"
2,1.65,"CC(C)(O)CN1Cc2cc(C(F)(F)F)ncc2-c2cnc(NCc3c(F)ccc4c3CCO4)n3cnc(c23)C1=O [Compound 48, 12-(((5-fluoro-2,3-dihydrobenzofuran-4-yl)methyl)amino)-4-(2-hydroxy-2-methylpropyl)-7-(trifluoro-methyl)-4,5-dihydro-3H-2,4,8,11,12a-pentaaza-benzo[4,5]cycloocta[1,2,3-cd]inden-3-one]"
3,1.81,"CC1(O)CC(CN2Cc3cc(C(F)(F)F)ncc3-c3cnc(NCc4c(F)ccc5c4CCO5)n4cnc(c34)C2=O)C1 (stereo not shown) [Compound 49, 12-(((5-fluoro-2,3-dihydrobenzofuran-4-yl)methyl)amino)-4-((3-hydroxy-3-methylcyclobutyl)methyl)-7-(trifluoromethyl)-4,5-dihydro-3H-2,4,8,11,12a-pentaazabenzo[4,5]cycloocta[1,2,3-cd]inden-3-one]"
4,1.16,"Cc1ccc2c(n1)CN(CC1CC(C)(O)C1)C(=O)c1ncn3c(NCc4c(F)ccc5c4CCO5)ncc-2c13 (stereo not shown) [Compound 50, 12-(((5-fluoro-2,3-dihydrobenzofuran-4-yl)methyl)amino)-4-((3-hydroxy-3-methylcyclobutyl)methyl)-7-methyl-4,5-dihydro-3H-2,4,6,11,12a-pentaaza benzo[4,5]cycloocta[1,2,3-cd]inden-3-one]"
5,0.7,"O=C1c2ncn3c(NCc4c(F)ccc5c4CCO5)ncc(c23)-c2ccc(C(F)(F)F)nc2CN1C1CCOCC1 [Compound 51, 12-(((5-fluoro-2,3-dihydrobenzofuran-4-yl)methyl)amino)-4-(tetrahydro-2H-pyran-4-yl)-7-(trifluoromethyl)-4,5-dihydro-3H-2,4,6,11, 12a-pentaazabenzo [4,5]cycloocta[1,2,3-cd]inden-3-one]"
6,0.7,"O=C1c2ncn3c(NCc4c(F)ccc5c4CCO5)ncc(c23)-c2ccc(C(F)(F)F)nc2CN1CC1CCOC1 (stereo not shown) [Compound 52, 12-(((5-fluoro-2,3-dihydrobenzofuran-4-yl)methyl)amino)-4-((tetrahydrofuran-3-yl)methyl)-7-(trifluoro-methyl)-4,5-dihydro-3H-2,4,6,11,12a-pentaaza benzo[4,5]cycloocta[1,2,3-cd]inden-3-one]"
7,3.96,"Cn1ncc2c1CNC(=O)c1ncn3c(NCc4c(F)ccc5c4CCO5)ncc-2c13 [Compound 53, 11-(((5-fluoro-2,3-dihydrobenzofuran-4-yl)methyl)amino)-6-methyl-5,6-dihydro-2,4,6,7,10,11a-hexaazacyclopenta[4,5]cycloocta[1,2,3-cd]inden-3(4H)-one]"
8,0.95,"Cn1cc2c(n1)COC(=O)c1ncn3c(NCc4c(F)ccc5c4CCO5)ncc-2c13 [Compound 54, 11-(((5-fluoro-2,3-dihydrobenzofuran-4-yl)methyl)amino)-7-methyl-5,7-dihydro-3H-4-oxa-2,6,7,10, 11a-pentaazacyclopenta[4,5]cycloocta[1,2,3-cd] inden-3-one]"
9,2.14,"O=C1c2ncn3c(NCc4c(F)ccc5c4CCO5)ncc(c23)-c2ccc(C(F)(F)F)nc2CN1CC1CC1 [Compound 55, 4-(cyclopropylmethyl)-12-(((5-fluoro-2,3-dihydrobenzofuran-4-yl)methyl)amino)-7-(trifluoromethyl)-4,5-dihydro-3H-2,4,6,11,12a-pentaazabenzo[4,5] cycloocta[1,2,3-cd]inden-3-one]"
10,4.49,"Cc1nn(C)c2c1-c1cnc(NCc3c(F)ccc4c3CCO4)n3cnc(c13)C(=O)N(C1CC1)C2 [Compound 56, 4-cyclopropyl-11-(((5-fluoro-2,3-dihydrobenzo-furan-4-yl)methyl)amino)-6,8-dimethyl-5,6-dihydro-2,4,6,7,10,11a-hexaazacyclopenta[4,5]cycloocta [1,2,3-cd]inden-3(4H)-one]"
11,4.2,"COCCN1Cc2nc(C(F)(F)F)ccc2-c2cnc(NCc3c(F)ccc4c3CCO4)n3cnc(c23)C1=O [Compound 57, 12-(((5-fluoro-2,3-dihydrobenzofuran-4-yl)methyl)amino)-4-(2-methoxyethyl)-7-(trifluoromethyl)-4,5-dihydro-3H-2,4,6,11,12a-pentaazabenzo[4,5] cycloocta[1,2,3-cd]inden-3-one]"
12,2.74,"CC(C)(O)CN1Cc2nc(C(F)(F)F)ccc2-c2cnc(NCc3c(F)ccc4c3CCO4)n3cnc(c23)C1=O [Compound 58, 12-(((5-fluoro-2,3-dihydrobenzofuran-4-yl)methyl)amino)-4-(2-hydroxy-2-methylpropyl)-7-(trifluoro-methyl)-4,5-dihydro-3H-2,4,6,11,12a-pentaazabenzo [4,5]cycloocta[1,2,3-cd]inden-3-one]"
13,2.14,"CC(C)N1Cc2nc(C(F)(F)F)ccc2-c2cnc(NCc3c(F)ccc4c3CCO4)n3cnc(c23)C1=O [Compound 59, 12-(((5-fluoro-2,3-dihydrobenzofuran-4-yl)methyl)amino)-4-isopropyl-7-(trifluoromethyl)-4,5-dihydro-3H-2,4,6,11,12a-pentaazabenzo[4,5]cycloocta [1,2,3-cd]inden-3-one]"
14,1.19,"O=C1c2ncn3c(NCc4c(F)ccc5c4CCO5)ncc(c23)-c2ccc(C(F)(F)F)cc2CN1CCF [Compound 61, 12-(((5-fluoro-2,3-dihydrobenzofuran-4-yl)methyl)amino)-4-(2-fluoroethyl)-7-(trifluoromethyl)-4,5-dihydro-3H-2,4,11,12a-tetraazabenzo[4,5] cycloocta[1,2,3-cd]inden-3-one]"
15,1.44,"CC(C)(F)CN1Cc2cc(C(F)(F)F)ccc2-c2cnc(NCc3c(F)ccc4c3CCO4)n3cnc(c23)C1=O [Compound 62, 12-(((5-fluoro-2,3-dihydrobenzofuran-4-yl)methyl)amino)-4-(2-fluoro-2-methylpropyl)-7-(trifluoromethyl)-4,5-dihydro-3H-2,4, 11,12a-tetraazabenzo [4,5]cycloocta[1,2,3-cd]inden-3-one]"
16,1.89,"CC(F)(F)CN1Cc2cc(C(F)(F)F)ccc2-c2cnc(NCc3c(F)ccc4c3CCO4)n3cnc(c23)C1=O [Compound 63, 4-(2,2-difluoropropyl)-12-(((5-fluoro-2,3-dihydrobenzofuran-4-yl)methyl)amino)-7-(trifluoromethyl)-4,5-dihydro-3H-2,4,11,12a-tetraazabenzo[4,5] cycloocta[1,2,3-cd]inden-3-one]"
17,3.61,"O=C1c2ncn3c(NCc4c(F)ccc5c4CCO5)ncc(c23)-c2ccc(C(F)(F)F)cc2CN1CC1CCOCC1 [Compound 66, 12-(((5-fluoro-2,3-dihydrobenzofuran-4-yl)methyl)amino)-4-((tetrahydro-2H-pyran-4-yl)methyl)-7-(trifluoromethyl)-4,5-dihydro-3H-2,4,11,12a-tetra-azabenzo[4,5]cycloocta[1,2,3-cd]inden-3-one]"
18,2.87,"O=C1c2ncn3c(NCc4c(F)ccc5c4CCO5)ncc(c23)-c2ccc(C(F)(F)F)cc2CN1C1CC1 [Compound 67, 4-cyclopropyl-12-(((5-fluoro-2,3-dihydrobenzo-furan-4-yl)methyl)amino)-7-(trifluoromethyl)-4,5-dihydro-3H-2,4,11,12a-tetraazabenzo[4,5]cycloocta [1,2,3-cd]inden-3-one]"
19,3.86,"O=C1c2ncn3c(NCc4c(F)ccc5c4CCO5)ncc(c23)-c2ccc(C(F)(F)F)cc2CN1CC1COCCO1 (stereo not shown) [Compound 68, 4-((1,4-dioxan-2-yl)methyl)-12-(((5-fluoro-2,3-dihydrobenzofuran-4-yl)methyl)amino)-7-(trifluoro-methyl)-4,5-dihydro-3H-2,4,11,12a-tetraazabenzo [4,5]cycloocta[1,2,3-cd]inden-3-one]"
20,19.8,"COc1cccc(F)c1CNc1ncc2c3c(ncn13)C(=O)N(C1CC1)Cc1nc(C(F)(F)F)ccc1-2 [Compound 69, 4-cyclopropyl-12-((2-fluoro-6-methoxybenzyl)amino)-7-(trifluoromethyl)-4,5-dihydro-3H-2,4,6, 11,12a-pentaazabenzo[4,5]cycloocta[1,2,3-cd] inden-3-one]"
21,> 100,"COc1cccc(F)c1CNc1ncc2c3c(ncn13)C(=O)N(C1CC1)Cc1cc(C(F)(F)F)ncc1-2 [Compound 70, 4-cyclopropyl-12-((2-fluoro-6-methoxybenzyl)amino)-7-(trifluoromethyl)-4,5-dihydro-3H-2,4,8, 11,12a-pentaazabenzo[4,5]cycloocta[1,2,3-cd] inden-3-one]"
22,8.94,"COc1cccc(F)c1CNc1ncc2c3c(ncn13)C(=O)N(C(C)C)Cc1nc(C(F)(F)F)ccc1-2 [Compound 71, 12-((2-fluoro-6-methoxybenzyl)amino)-4-isopropyl-7-(trifluoromethyl)-4,5-dihydro-3H-2,4,6,11,12a-pentaazabenzo[4,5]cycloocta[1,2,3-cd]inden-3-one]"
